Results published in PMC8199216 (International Journal of Molecular Sciences, 2021).
“And” between values parts separate entries of the source, which are not always exact repeats. Equal entries are not always repeated.

Tests used:
[1] = target: T1, GLP (982–1266) (Homo sapiens, UniProt Q9H9B1); test: Coupled enzyme fluorescent histone methyltransferase assay (SAM-SAH conversion); format: biochemical; conditions: fluorescence based coupled enzyme assay
T1 construct: GLP (982–1266) were cloned, expressed, and purified; made in house
T1 sequence (Q9H9B1 982-1266): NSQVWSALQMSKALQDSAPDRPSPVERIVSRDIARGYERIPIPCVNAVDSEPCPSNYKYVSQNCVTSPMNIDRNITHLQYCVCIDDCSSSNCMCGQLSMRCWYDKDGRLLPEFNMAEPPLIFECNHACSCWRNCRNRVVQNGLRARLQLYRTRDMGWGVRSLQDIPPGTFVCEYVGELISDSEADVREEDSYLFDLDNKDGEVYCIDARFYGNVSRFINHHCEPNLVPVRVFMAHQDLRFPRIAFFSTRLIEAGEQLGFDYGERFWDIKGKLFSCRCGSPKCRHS
Method: (§1) Full length of S. solfataricus S-adenosylhomocysteine hydrolase (SAHH) was cloned, expressed, and purified using the published protocol.
(§2) The assay was performed using the previously published protocol. Tested compounds were pre-dissolved in assay buffer (20 mM HEPES pH 7.5, 50 mM NaCl, 0.01% Triton X-100, 3 mM MgCl2, 0.1 mg/mL BSA) with 5 μM of purified SAHH, 1 unit of ADA, 10 μM of H3, and 5 nM of either G9a or GLP as 30 μL in black 96-well plate. […] After incubation for 10 min at room temperature, thiol fluorescent probe IV (20 μM, 50 μL) was added.

[2] = target: T2, Human G9a (913–1193) (Homo sapiens, UniProt Q96KQ7); test: as above; format: biochemical; conditions: fluorescence based coupled enzyme assay
T2 construct: Catalytic domains of Human G9a (913–1193); made in house
T2 sequence (Q96KQ7 913-1193): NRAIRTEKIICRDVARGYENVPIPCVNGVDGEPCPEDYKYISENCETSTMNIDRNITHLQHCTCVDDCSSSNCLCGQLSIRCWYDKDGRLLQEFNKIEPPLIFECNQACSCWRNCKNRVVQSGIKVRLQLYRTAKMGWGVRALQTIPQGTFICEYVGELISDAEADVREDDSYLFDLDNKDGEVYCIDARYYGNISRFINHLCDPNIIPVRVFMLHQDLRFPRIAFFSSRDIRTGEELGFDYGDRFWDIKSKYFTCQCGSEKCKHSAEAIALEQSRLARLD
Method: as §1, §2

[3] = target: Spindlin1 (Spin1)
[4] = target: T3, His-Spindlin1(49–262) (Homo sapiens, UniProt Q9Y657); test: biochemical
T3 sequence (Q9Y657 49-262): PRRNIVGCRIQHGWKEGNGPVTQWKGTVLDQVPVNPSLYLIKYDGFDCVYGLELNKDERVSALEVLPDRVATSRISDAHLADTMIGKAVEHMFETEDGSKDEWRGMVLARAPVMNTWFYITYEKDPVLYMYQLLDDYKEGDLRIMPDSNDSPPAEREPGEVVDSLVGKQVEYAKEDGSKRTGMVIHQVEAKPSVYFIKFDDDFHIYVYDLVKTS
Method: (§3) To investigate the influence of these modifications on the Spindlin1 inhibitory activity, the fluorescence polarization assay established earlier [31] was used to determine the potency of the compounds.
(§4) Fluorescence polarization assays were carried out as described before [31]. […] For the controls, a buffer solution with the same DMSO concentration as the inhibitor solutions was added to the plate instead of the inhibitor solution, the negative control contained the H3(1–14)K4me3-Fluorescein without Spindlin1. The blank control contained buffer solution with DMSO. Every inhibitor concentration and the controls were done in triplicates. Fluorescence polarization values (mP) were determined after blank correction as IS−G×IP/IS+G×IP×1000 , where G is a device-specific factor and IS and IP are the fluorescence intensities of the S and P plane, respectively. […] Curve fitting was carried out using GraphPad Prism 7, applying a non-linear sigmoidal fit with a variable slope.

[5] = target: GLP
[6] = target: G9a
[7] = target: T3, His-Spindlin1(49–262); conditions: fluorescence polarization
Method: as §3, §4

[8] = read-out: Spin1 inhibition in percentage at specified concentration

| Structure (SMILES) | IC50 [1] [nM] | IC50 [2] [nM] | IC50 [3] | IC50 [4] [nM] | IC50 [5] | IC50 [6] | Spindlin1 inhibitory activity (in words) [7] | also measured |
| --- | --- | --- | --- | --- | --- | --- | --- | --- |
| COc1cc2c(cc1OCCCN1CCCC1)N=C(N)C21CCCCC1 [1n] | 527 | 779 | 255 nM | 255 ± 35 | 527 nM | 779 nM | – | – |
| CC(C)Oc1cc2c(cc1OCCCN1CCCC1)N=C(N)C21CCC1 [1m] | – | – | 3300 nM | 3300 ± 470 | – | – | micromolar range | – |
| COc1cc2c(cc1OCCN1CCCC1)N=C(N)C21CCC1 [1e] | – | – | – | – | – | – | Inactive | – |
| CCOc1cc2c(cc1OCCCN1CCCC1)N=C(N)C21CCCCC1 [1l] | – | – | 567 nM | 567 ± 35 | – | – | – | – |
| COc1cc2c(cc1OCCCN1CCC(=O)C1)N=C(N)C21CCCC1 [1b] | – | – | – | – | – | – | weakly active | % inhibition at 100 μM [3]: 81% @ 100 μM [d]; inhibition at 100 µM [4, 8]: 81% |
| COc1c(OCCCN2CCCC2)cc2c(c1C(C)=O)C1(CCCC1)C(N)=N2 [1k] | – | – | 11800 ± 210 nM | 11800 | – | – | – | – |
| CCC1(C)C(N)=Nc2cc(OCCCN3CC[C@@H](C)C3)c(OC)cc21 (stereo partly shown) [1t] | > 20000 | > 20000 | 467 nM | 467 ± 15 | > 20000 nM | > 20000 nM | nanomolar range | – |
| COc1cc2c(cc1OCCN1CCCC1)N=C(N)C21CCCCC1 [1d] | – | – | – | – | – | – | Inactive | – |
| COc1cc2c(cc1OCCCN1CCCC1)N=C(N)C2(C)C [1p] | 470 | 759 | 157 nM | 157 ± 12 | 470 nM | 759 nM | – | – |
| COc1cc2c(cc1OCCCN1CCC(CO)C1)N=C(N)C21CCCC1 (stereo not shown) [1u] | > 20000 | > 20000 | 1250 nM | 1250 ± 50 | > 20000 nM | > 20000 nM | – | – |
| COc1cc2c(cc1OCCCN1CC[C@H](O)C1)N=C(N)C21CCCC1 [1q (S)] | – | – | – | 478 | – | – | – | – |
| COc1cc2c(cc1OCCCN1CCC(O)C1)N=C(N)C21CCCC1 (stereo not shown) | – | – | (S): 478 ± 34 | – | – | – | – | – |
| COc1cc2c(cc1OCCCN1CCC(O)C1)N=C(N)C21CCCC1 (racemic) [1q (rac)] | 4430 | 2320 | – | 584 | – | – | – | – |
| COc1c(OCCCN2CCCC2)cc2c(c1OC)C1(CCCC1)C(N)=N2 [1j] | – | – | 2500 nM | 2500 ± 200 | – | – | – | – |
| COc1cc2c(cc1OCCCN1CC[C@@H](O)C1)N=C(N)C21CCCC1 [1q (R)] | – | – | (R): 470 ± 27 | 470 | – | – | – | – |
| CCOc1cc2c(cc1OCCCN1CCCC1)N=C(N)C21CCCC1 [1g] | 2970 | 243 | – | – | 2970 nM | 243 nM | – | – |
| CCOc1c(OCCCN2CCCC2)cc2c(c1OCC)C1(CCCC1)C(N)=N2 [1a] | – | – | – | – | – | – | weakly active | % inhibition at 25 μM [3]: 70% @ 25 μM [d]; inhibition at 25 µM [4, 8]: 70% |
| COc1cc2c(cc1OCCCCN1CCCC1)N=C(N)C21CCCCC1 [1c] | > 20000 | > 20000 | – | – | > 20000 nM | > 20000 nM | inactive | % inhibition at 50 μM [3]: 42% @ 50 μM [d]; inhibition at 50 µM [4, 8]: 42% |
| COc1c(OCCCN2CCCC2)cc2c(c1C#N)C1(CCCC1)C(N)=N2 [1h] | – | – | 3900 nM | 3900 ± 700 | – | – | – | – |
| COc1c(OCCCN2CCCC2)cc2c(c1Cl)C1(CCCC1)C(N)=N2 [1i] | > 20000 | > 20000 | 1600 nM | 1600 ± 200 | > 20000 nM | > 20000 nM | – | – |
| CCC1(C)C(N)=Nc2cc(OCCCN3Cc4ccccc4C3)c(OC)cc21 (stereo not shown) [1s] | > 20000 | > 20000 | 360 nM | 360 ± 20 | > 20000 nM | > 20000 nM | nanomolar range | – |
| COc1cc2c(cc1OCCCN1CCCC1)N=C(N)C21CCCC1 [1f] | 334 | 431 | – | – | 334 nM | 431 nM | – | – |
| CCC1(C)C(N)=Nc2cc(OCCCN3CCCC3)c(OC)cc21 (stereo not shown) [1r] | 3180 | 3190 | 408 nM | 408 ± 35 | 3180 nM | 3190 nM | – | – |
| COc1cc2c(cc1OCCCN1CCC(O)C1)N=C(N)C21CCCC1 (racemic) | – | – | (rac): 584 ± 31 | – | (rac): 4432 | (rac): 2321 | – | – |
| CCC1(CC)C(N)=Nc2cc(OCCCN3CCCC3)c(OC)cc21 [1o] | > 20000 | > 20000 | 1210 nM and 1210 ± 90 nM | 1210 ± 90 | > 20000 nM | > 20000 nM | – | – |
